Where two headings read alike, the source gives them in different places. Starred links: 1 amine or outer side, 2 acyl side, 3 side chain; linkers in the order of their positions; H or OH if unused. Positions of bridges follow the written chain, without caps; N, C: chain ends. Non-standard residues stand in square brackets, D forms with d. Residues, ends and D or L forms follow the SMILES beside them. Chains are numbered I, II in the order given. Actinocin(9to1) = Cc1c2oc3c(C)ccc(C(=O)[*:1])c3nc-2c(C(=O)[*:2])c(N)c1=O; NMeV = CN[C@H](C(=O)O)C(C)C; Sar = CNCC(=O)O
Legend:
[1] = tested on: CD95L-mRNA; type: cell-based, human; details: for upward regulation of CD95L-mRNA: HepG2 (wt p53) cells; for effect on transcription or translation of the housekeeping gene β-actin: subtoxic concentrations
[2] = tested on: c-Jun; assay: c-Jun immunofluorescence in primary human hepatocytes; type: cell-based; details: 5-FU 50 μg/ml for 40 hours
Experimental: (§1) Thereafter, the cells were either not treated (A) or treated with 5-FU (100 μg/ml) for 40 hours (B), fixed and stained as described. C+D: Human primary hepatocytes were isolated as described in Example 1 and seeded onto culture dishes. Thereafter, the cells were either not treated (C) or treated with 5-FU (50 μg/ml) for 40 hours (D), fixed and stained with an antibody specific to c-Jun.
Primary human hepatocytes were obtained by means of a 2-step perfusion technique from healthy liver tissue of patients undergoing partial liver resection. For this purpose, a cannula was introduced into a blood vessel of the removed liver tissue and it was perfused with Ca-free and Mg-free “Hank's balanced salt solution (HBSS; Gibco BRL) containing 0.5 mM EDTA and 50 mM HEPES for 15 to 20 min. […] The viability was determined by means of the trypan blue exclusion method. […]
Cultured Hep3B cells or freshly isolated human primary hepatocytes were plated onto Lab-Tek™ chamber slides (Renner GmbH, Darmstadt, Germany). […] Non-specific staining was monitored by incubation with mouse or rabbit immunoglobulins in place of the specific primary antibody or by blocking the primary antibody with the immunogenic peptide. The slides were covered with cover glasses and evaluated by means of a fluorescence microscope. […]

[3] = tested on: SKW6.4 cells; assay: 51Cr release assay, Hep3B effector cells and SKW6.4 target cells; type: cell-based, human; details: Hep3B treated with 100 μg/ml 5-FU 48 hours before incubation
Experimental: FIG. 3: The treatment with chemotherapeutic agents results in an upward regulation of functional CD95L A ^51Cr release assay with Hep3B cells as effectors and SKW6.4 cells as target was used. Hep3B cells were cultured in 96-well plates treated with 5-FU. After 48 hours, the chemotherapeutic agents were removed from the culture medium and ^51Cr-labeled SKW6.4 cells were added with either a control antibody or the anti-CD95L antibody NOK-1. Following incubation overnight, the supernatants were measured in a gamma counter. Relative lysis was calculated as indicated in Example 1. E/T is the ratio between effector cells and target cells. Every series of concentration was carried out threefold. The diagram represents an experiment from a series of independent experiments having the same result.
CD95L-mediated cytotoxicity induced by chemotherapy was studied. Hep3B cells (effector cells) were seeded into 96-well plates and treated with chemotherapeutic agents for 48 hours. […] After 12 to 16 hours, 100 μl supernatant of each well were collected and measured in a gamma counter. The specific lysis was calculated in accordance with formula L=(E−S)/(T−S), E representing the gamma counts of the unknown sample, S being the spontaneous lysis of the labeled target cells in the medium without effector cells, and T representing the maximum release of the target cells kept in 2 N HCl. […]

[4] = tested on: c-Jun; assay: c-Jun immunofluorescence in Hep3B cells; type: cell-based, human; details: 5-FU 100 μg/ml for 40 hours
Experimental: as §1
Cultured Hep3B cells or freshly isolated human primary hepatocytes were plated onto Lab-Tek™ chamber slides (Renner GmbH, Darmstadt, Germany). Following culturing over a period of at least two days, the cells were treated with chemotherapeutic agents. Thereafter, fixation in methanol/acetone (5 min. or 10 sec. at −20° C.) was carried out. Then, the cells were initially incubated at 37° C. for 1 hour with the specific primary antibody against human c-Jun (Santa Cruz GmbH, Heidelberg, Germany), and after three wash steps using PBS, the cells were covered with fluorescein-isothiocyanate-conjugated goat anti-rabbit IgG (Dianova, Hamburg, Germany) for 1 hour. Non-specific staining was monitored by incubation with mouse or rabbit immunoglobulins in place of the specific primary antibody or by blocking the primary antibody with the immunogenic peptide. The slides were covered with cover glasses and evaluated by means of a fluorescence microscope. […]

[5] = tested on: CD95L promoter; assay: CD95L promoter luciferase reporter assay in transiently transfected Hep3B cells; type: cell-based, human; details: for effect of the combination on activation of the CD95L promoter: 5-FU plus etoposide, 48 hours
Experimental: Every bar represents the calculated value from treated/untreated cells. The transfection efficiency in A and B was monitored by cotransfection of a renilla Luciferase construct controlled by a basal promoter. […] B: Titration of 5-FU. Hep3B cells were transiently transfected with the −36/+100 promoter construct. […] The cells were lyzed and the luciferase activity was determined.
The cotransfected cells were then treated with 100 μg/ml 5-FU for 48 hours or not treated. The transfection efficiency was normalized by either cotransfection of an expression vector for chloramphenicol transferase (CAT) or renilla luciferase (both controlled by a basal promoter). The luciferase activity was measured using the “dual luciferase” assay (Promega company) in accordance with the manufacturer's instructions, and the CAT activity was determined by means of a commercially available CAT ELISA. Average values (with standard deviation) from different independent experiments are shown. B: “Dual luciferase” assay with Hep3B cells cotransfected with the described CD95L promoter construct and a renilla-luciferase expression vector (as a control for the transfection efficiency). The cells were collected at the indicated times. In addition, the protein content of the transfected cells was determined. The data are average values (with standard deviation) from three samples of a representative experiment. Four independent experiments were carried out.
Hep3B cells were transfected with the −36/+100 construct (CD95L prom wt) or the APX4 construct (mutated −36/+100 CD95L.luc; Cd95L prom mut). The transfection efficiency was monitored by cotransfection with renilla luciferase. Following transfection the cells were treated with 5-FU (100 μg/ml) for 48 hours. The luciferase activity was measured and the multiplication of induction was calculated.
One day before the transfection, the cells were plated out with a density of 0.6×10^6/9 cm Petri dishes. The medium was exchanged two hours before the transfection. The transfection was carried out by means of the method based on calcium phosphate precipitation. In summary, 5 to 40 μg DNA were diluted in 500 μl of a calcium chloride solution. The DNA/calcium chloride mixture was added drop-wise to 500 μl HBS. Precipitation was carried out at room temperature for 20 min., and then the precipitation mixture was added to the culture medium. The precipitate was allowed to stay on the cells for 12 to 24 hours. Thereafter, the cells were shock-treated using 16% glycerin in full medium for 3 min. Following three wash steps using PBS, the cells were cultured in medium supplemented with 20% FCS for at least six hours. Finally, the cells were distributed over 6-well plates, and the chemotherapeutic treatment was started for different periods.
After three wash steps in PBS, the cells were lyzed in 200 μl passive lysis buffer (Promega). Following 20 minutes of incubation at room temperature, the cells were scratched off the plates. The lyzates were subjected to two freeze/thaw cycles and then cell debris was removed by centrifugation.

[6] = tested on: CD95L-mRNA; assay: CD95L-mRNA expression by RT-PCR in Hep3B cells; type: cell-based, human; details: Hep3B (p53 -/-) cells
[7] = tested on: HepG2 cells; assay: Apoptosis by PI exclusion and forward/side scatter (FSC/SSC); type: cell-based; details: 100 μg/ml 5-FU, after 48 hours
Experimental: FIG. 1: Chemotherapeutic agents effect CD95-mediated death in HepG2 cells HepG2 cells were cultured almost up to confluence and then incubated with 100 μg/ml 5-FU over the indicated periods in the presence of either an isotype-adapted control antibody or the anti-CD95L antibody NOK-1 (50 μg/ml). The same experiment was carried out with the addition of CD95-Fc (50 μg/ml). Apoptosis was determined by PI exclusion and measurement of the forward/side scatter (FSC/SSC). The data shown are average values with standard deviations from three samples.
Following the corresponding treatment, the cells were trypsinated with 1% trypsin-EDTA for 5 min., washed twice with PBS and stained using 2.5 μg/ml propidium iodide (PI; Sigma). The stain uptake was measured by means of a “FACScan” cytometer (Becton Dickinson GmbH, Heidelberg, Germany) using the “CellQuest” Software. Changes in the forward/side scatter (FSC/SSC) of the cell population were evaluated as well. For quantifying the DNA fragmentation the supernatants were centrifuged at 200×g, the cells were trypsinated and washed as indicated above. […] The nuclei were then analyzed as regards their DNA content by means of flow cytometry (Nicoletti et al., Journal of Immunological Methods 139 (1991), 271). […]

| Molecule | upward regulation of CD95L-mRNA [1] | effect of the combination on activation of the CD95L promoter ([5]; Hep3B cells) | upward regulation of CD95L-mRNA [6] | effect on the upward regulation of CD95L following treatment with chemotherapeutic agents [1] | effect on transcription or translation of the housekeeping gene β-actin [1] | other results |
| --- | --- | --- | --- | --- | --- | --- |
| O=c1[nH]cc(F)c(=O)[nH]1 [5-FU, 5-fluorouracil] | regulate upward | synergistic effect | regulate upward | – | – | AP-1 (c-Jun) nuclear staining [2]: intensive nuclear reactivity; killing of CD95-bearing SKW6.4 cells by treated Hep3B cells [3]: significant killing; AP-1 (c-Jun) nuclear staining [4]: widely accumulated AP-1 within the nucleus; inducibility of CD95L promoter luciferase constructs (-1204/+100 to -36/+100) ([5]; Hep3B cells transiently transfected): inducible; inducibility of the AP-1-mutated -36/+100 reporter construct ([5]; Hep3B cells, 100 μg/ml 5-FU, 48-hour treatment): almost fully eliminated; time of maximum activation of the -36/+100 construct ([5]; Hep3B cells, -36/+100 luciferase construct): 64 h; response of the -36/+19 construct (lacks AP-1 site) ([5]; Hep3B cells, incubation up to 64 hours): did not respond; apoptosis rate [7]: 43% |
| Cc1c2oc3c(C)ccc(C(=O)N[C@@H]4C(=O)N[C@H](C(C)C)C(=O)N5CCC[C@H]5C(=O)N(C)CC(=O)N(C)[C@@H](C(C)C)C(=O)O[C@@H]4C)c3nc-2c(C(=O)N[C@@H]2C(=O)N[C@H](C(C)C)C(=O)N3CCC[C@H]3C(=O)N(C)CC(=O)N(C)[C@@H](C(C)C)C(=O)O[C@@H]2C)c(N)c1=O [actinomycin C1] (I: T[dV]P[Sar][NMeV] / II: T[dV]P[Sar][NMeV]; ester I:1-I:C, II:1-II:C; linker I:N-II:N via Actinocin(9to1)) | – | – | – | reduced efficiently | no effect | – |
| C[C@@H]1C[C@@H]([C@H](O)CC2CC(=O)NC(=O)C2)C(=O)[C@@H](C)C1 [cycloheximide] | – | – | – | reduced efficiently | no effect | – |
| COc1cc([C@@H]2c3cc4c(cc3[C@@H](O[C@@H]3O[C@@H]5CO[C@@H](C)O[C@H]5[C@H](O)[C@H]3O)[C@H]3COC(=O)[C@H]23)OCO4)cc(OC)c1O [etoposide] | regulate upward | synergistic effect | regulate upward | – | – | – |
| bleomycin | regulated upward | – | regulated upward | – | – | – |

Reference: patent US20030157502A1, “Chemotherapeutant screening method” (priority 1999, published 2003)
